Values of other authors as cited in patent US7592371B2, “External preparation” (Medrx Co., Ltd., priority 2004, dated 2009).

Conditions: oral administration

For `COc1ccc(C=CC(=O)Nc2ccccc2C(=O)O)cc1OC` [tranilast, N-(3,4-Dimethoxycinnamoyl) anthranilic acid], the side effects is listed as “serious side effects such as hepatic dysfunction and renal dysfunction”.
